Laboratory results from the OligoGym collection.
“And” between values parts separate entries of the source, which are not always exact repeats. Identical values can stand only once. After the bases stand the sugars from the 5' end (letter, count) and the backbone: PS all phosphorothioate, else s phosphorothioate and o phosphodiester by linkage. Methylation of C is not given here. e = 2'-O-(2-methoxyethyl) (MOE); k = constrained ethyl (cEt); d = 2'-deoxy (DNA)

Molecular target: IRF4
Details: ASO

Sequence | target mRNA inhibition (SK-MEL-28, 4 µM) | target mRNA inhibition (MM.1R, 1 µM) | also measured
ATTTATACTGTCTGGT (sugars k3 d10 k3, PS) | 49% | – | –
ATTTTAAGGCCCTGTC (sugars k3 d10 k3, PS) | 34% | – | –
CAAAACAGTAAGAGGG (sugars k3 d10 k3, PS) | 31% | – | –
CAAAACGCAGAGCCAG (sugars k3 d10 k3, PS) | 58% | – | –
CAAAATGGTGTGTAAG (sugars k3 d10 k3, PS) | 25% | – | –
CAAAGAGCTTGCAGGT (sugars k3 d10 k3, PS) | 4% | – | –
CAAAGCAAGTGTCTAA (sugars k3 d10 k3, PS) | 23% | – | –
CAAAGCGCACCGCAGG (sugars k3 d10 k3, PS) | – | -4% | –
CAAAGCGGGTTCACAA (sugars k3 d10 k3, PS) | 16% | – | –
CAAATGACTTAGTCAG (sugars k3 d10 k3, PS) | 55% | – | –
CAACACGGGAATTTCC (sugars k3 d10 k3, PS) | 55% | – | –
CAACAGCACTGTCCAC (sugars k3 d10 k3, PS) | 43% | – | –
CAACCATTTTCACAAG (sugars k3 d10 k3, PS) | 17% | – | –
CAAGAACTGCAGCTCC (sugars k3 d10 k3, PS) | 47% | – | –
CAAGACAAATCTTCTG (sugars k3 d10 k3, PS) | 13% | – | –
CAAGACAAGGGTTTGA (sugars k3 d10 k3, PS) | – | -3% | –
CAAGAGGTGCGAGTAC (sugars k3 d10 k3, PS) | 22% | – | –
CAAGATCGAGCGGTGA (sugars k3 d10 k3, PS) | 38% | – | –
CAAGCAGTGATGTCAG (sugars kkddddddddddkeke, PS) | – | 20% and 26% | –
CAAGCAGTGATGTCAG (sugars kkdddddddddekeke, PS) | – | 26% and 34% | –
CAAGGATAACCTGAAC (sugars k3 d10 k3, PS) | 26% | – | –
CAAGTGTCTAAAGTCC (sugars k2 d9 e3 k2, PS) | – | 22% and 31% | –
CAAGTGTCTAAAGTCC (sugars kkdddddddddkekek, PS) | – | 15% and 6% | –

Sequence | target mRNA inhibition (SK-MEL-28, 4 µM) | target mRNA inhibition (MM.1R, 1 µM) | also measured
CAAGTGTCTTCCACAA (sugars k3 d10 k3, PS) | 65% | – | –
CAATAAAATGTCACGC (sugars k3 d10 k3, PS) | 47% | – | –
CAATACTGTAAGGGCT (sugars k3 d10 k3, PS) | 56% | – | –
CAATCATGATATTAGA (sugars k3 d10 k3, PS) | 38% | – | –
CAATGATGGCAGTCTA (sugars k3 d10 k3, PS) | 40% | – | –
CAATGGAGATACTTGT (sugars k3 d10 k3, PS) | – | -16% | –
CAATTGAAATGGAGCA (sugars k3 d10 k3, PS) | 26% | – | –
CACAAAGCGGGTTCAC (sugars k3 d10 k3, PS) | – | -12% | –
CACAAGCATAAAAGGT (sugars k3 d10 k3, PS) | 26% | – | –
CACAAGTGGCCTTCCT (sugars k3 d10 k3, PS) | 45% | – | –
CACACTGCCGTGATCT (sugars k3 d10 k3, PS) | – | 20% | –
CACATCACTTGGTCAA (sugars k3 d10 k3, PS) | 72% | – | –
CACCACCTCGAGGCCA (sugars k3 d10 k3, PS) | 24% | – | –
CACCACTATTCGAGAG (sugars k3 d10 k3, PS) | 48% | – | –
CACCATGGCACAGTCT (sugars k3 d10 k3, PS) | 79% | – | –
CACCCACACAAGTCTT (sugars k3 d10 k3, PS) | 9% | – | –
CACCTGATCTTGCTGC (sugars k3 d10 k3, PS) | – | 12% | –
CACGAGGTTGCCGAGA (sugars k3 d10 k3, PS) | 64% | 48% | target mRNA inhibition (MM.1R, 0.0625 µM): -3%; target mRNA inhibition (MM.1R, 0.074 µM): 4%; target mRNA inhibition (MM.1R, 0.222 µM): 7%; target mRNA inhibition (MM.1R, 0.25 µM): 9%; target mRNA inhibition (MM.1R, 0.666 µM): 22%; target mRNA inhibition (MM.1R, 2 µM): 34%; target mRNA inhibition (MM.1R, 4 µM): 62%
CACGGACGAACGCGCA (sugars k3 d10 k3, PS) | -2% | – | –
CACTAAAGACTATTAG (sugars k3 d10 k3, PS) | 5% | – | –
CACTAAGCTTGATAAA (sugars k3 d10 k3, PS) | -11% | – | –
CACTAATACCTACCTG (sugars k3 d10 k3, PS) | 6% | – | –
CACTATGCCTGAACTG (sugars k3 d10 k3, PS) | 10% | – | –

Sequence | target mRNA inhibition (SK-MEL-28, 4 µM) | target mRNA inhibition (MM.1R, 1 µM) | also measured
CACTGGCATTGAGACG (sugars k3 d10 k3, PS) | 69% and 76% | – | –
CAGAACTAATGTCCCC (sugars k3 d10 k3, PS) | 69% | – | –
CAGAAGGGCAACAGTT (sugars k3 d10 k3, PS) | 38% | – | –
CAGAATGGCGAGTTGG (sugars k3 d10 k3, PS) | – | 31% | –
CAGAATGTTTCGACAT (sugars k3 d10 k3, PS) | – | 14% | –
CAGACATACCTACAAG (sugars k3 d10 k3, PS) | 44% | – | –
CAGATAGTTAAGTACT (sugars k3 d10 k3, PS) | 44% | – | –
CAGCAAAGAGGGTCAC (sugars k3 d10 k3, PS) | 61% | – | –
CAGCAACTCCCTTGGG (sugars k3 d10 k3, PS) | 23% | – | –
CAGCACCGTGGTGCGA (sugars k3 d10 k3, PS) | – | -27% | –
CAGCACTCAGATTCTA (sugars k3 d10 k3, PS) | 12% | – | –
CAGCATAGCATTATCT (sugars k3 d10 k3, PS) | -51% | – | –
CAGCATGACAGGGCGA (sugars k3 d10 k3, PS) | 56% | – | –
CAGCCGAAGCATTTTA (sugars k3 d10 k3, PS) | – | 0% | –
CAGGAGAGCCCCTACC (sugars k3 d10 k3, PS) | – | -8% | –
CAGGAGCGCGGAGGGC (sugars k3 d10 k3, PS) | 11% | – | –
CAGGTTTCATTTCATT (sugars k4 d8 k4, PS) | 54% | – | target mRNA inhibition (MM.1R, 0.074 µM): 2%; target mRNA inhibition (MM.1R, 0.222 µM): 3%; target mRNA inhibition (MM.1R, 0.666 µM): 19%; target mRNA inhibition (MM.1R, 2 µM): 15%; target mRNA inhibition (SK-MEL-28, 0.185 µM): 14% and 13% and 18%; target mRNA inhibition (SK-MEL-28, 5 µM): 57% and 55% and 67%; target mRNA inhibition (SK-MEL-28, 15 µM): 74% and 72%
CAGTAAACGCAAGTCT (sugars k3 d10 k3, PS) | – | -14% | –
CAGTAAGAGGGCAGTC (sugars k3 d10 k3, PS) | 50% | – | –
CAGTGACTTGCATCCA (sugars k2 d9 e3 k2, PS) | – | 28% | –
CAGTGACTTGCATCCA (sugars k3 d10 k3, PS) | – | 53% and 38% | target mRNA inhibition (MM.1R, 0.0625 µM): 40% and 20%; target mRNA inhibition (MM.1R, 0.25 µM): 43% and 24%; target mRNA inhibition (MM.1R, 4 µM): 75% and 61%
CAGTGATGTCAGGTTT (sugars kddddddddddkekek, PS) | – | 46% | –
CAGTGATGTCAGGTTT (sugars kkddddddddddkeke, PS) | – | 41% | –

Sequence | target mRNA inhibition (SK-MEL-28, 4 µM) | target mRNA inhibition (MM.1R, 1 µM) | also measured
CAGTGATGTCAGGTTT (sugars kkdddddddddekeke, PS) | – | 47% | –
CAGTGATGTCAGGTTT (sugars kkkdddddddddkeke, PS) | – | 34% | –
CAGTGCTCTTTAACAA (sugars k3 d10 k3, PS) | 37% | – | –
CAGTGGTGGCCGCGGG (sugars k3 d10 k3, PS) | 27% | – | –
CAGTTCTAAGCATTGC (sugars k3 d10 k3, PS) | 33% | – | –
CAGTTGTAAATGAGTC (sugars kddddddddddkekek, PS) | – | 65% | target mRNA inhibition (H929, 0.00067 µM): 16%; target mRNA inhibition (H929, 0.002 µM): 25%; target mRNA inhibition (H929, 0.00667 µM): 52%; target mRNA inhibition (H929, 0.02 µM): 68%; target mRNA inhibition (H929, 0.04 µM): 38%; target mRNA inhibition (KMS11, 0.2 µM): 77% and 89%; target mRNA inhibition (MM.1R, 0.074 µM): 18%; target mRNA inhibition (MM.1R, 0.222 µM): 44%; target mRNA inhibition (MM.1R, 0.666 µM): 63%; target mRNA inhibition (MM.1R, 2 µM): 85%
CAGTTGTAAATGAGTC (sugars kkdddddddddekeke, PS) | – | 72% | target mRNA inhibition (H929, 0.00067 µM): 1%; target mRNA inhibition (H929, 0.002 µM): 27%; target mRNA inhibition (H929, 0.00667 µM): 45%; target mRNA inhibition (H929, 0.02 µM): 60%; target mRNA inhibition (H929, 0.04 µM): 34%; target mRNA inhibition (KMS11, 0.2 µM): 83% and 90%; target mRNA inhibition (MM.1R, 0.074 µM): 12%; target mRNA inhibition (MM.1R, 0.222 µM): 39%; target mRNA inhibition (MM.1R, 0.666 µM): 65%; target mRNA inhibition (MM.1R, 2 µM): 88%
CAGTTGTAAATGAGTC (sugars kkdddddddddkdkdk, PS) | – | 46% | –
CAGTTGTAAATGAGTC (sugars kkdddddddddkekek, PS) | – | 81% | target mRNA inhibition (H929, 0.00067 µM): 22%; target mRNA inhibition (H929, 0.002 µM): 41%; target mRNA inhibition (H929, 0.00667 µM): 67%; target mRNA inhibition (H929, 0.02 µM): 74%; target mRNA inhibition (H929, 0.04 µM): 40%; target mRNA inhibition (KMS11, 0.2 µM): 83% and 93%; target mRNA inhibition (MM.1R, 0.074 µM): 28%; target mRNA inhibition (MM.1R, 0.222 µM): 55%; target mRNA inhibition (MM.1R, 0.666 µM): 78%; target mRNA inhibition (MM.1R, 2 µM): 91%
CATAAAAGGTTCCTGT (sugars k3 d10 k3, PS) | 9% | – | –
CATAATCCAGTATCTG (sugars k3 d10 k3, PS) | 18% | – | –
CATAGAGCCAGAGCAG (sugars k3 d10 k3, PS) | 60% | – | –
CATAGCATTATCTACC (sugars k3 d10 k3, PS) | 43% | – | –
CATATACATTGAGGCA (sugars k3 d10 k3, PS) | – | 20% | –
CATCAATCATGATATT (sugars k3 d10 k3, PS) | 25% | – | –
CATCACCGAACACACC (sugars k3 d10 k3, PS) | 24% | – | –
CATCAGAAATCACGAG (sugars k3 d10 k3, PS) | 55% | – | –
CATCCTGCTTCCAGTG (sugars k3 d10 k3, PS) | 30% | – | –
CATCTAATCCACAATC (sugars k3 d10 k3, PS) | – | -19% | –
CATGATAAGGCACTAC (sugars k3 d10 k3, PS) | – | -6% | –
CATGATATTAGAGACT (sugars k3 d10 k3, PS) | 56% | – | –
